In ChEMBL document CHEMBL1201862, “PubChem BioAssay data set” (2004):
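Results reflect a 48-hour exposure of cells in 96-well plates to compound at five concentrations. GI50 = concentration required for 50% inhibition of growth.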 Calls of active or inactive are those of the source. No stated cut-off is given here; in the data, active = GI50 up to about 1.1 µM and inactive = higher.

Assays:
Experiment in all cases: inhibition of tumour cell growth, NCI panel, 48 h
HCT-116 = test system: HCT-116
NCI-H226 = test system: NCI-H226
SNB-75 = test system: SNB-75
XF498 = test system: XF498
HCC 2998 = test system: HCC 2998
NCI-H23 = test system: NCI-H23
HT-29 = test system: HT-29
K562 = test system: K562
SW-620 = test system: SW-620
DMS-273 = test system: DMS-273
OVCAR-8 = test system: OVCAR-8
NCI-H460 = test system: NCI-H460
UACC-62 = test system: UACC-62
COLO 205 = test system: COLO 205
SK-MEL-5 = test system: SK-MEL-5
HOP-18 = test system: HOP-18
HL-60 = test system: HL-60
SNB-78 = test system: SNB-78
LXFL 529 = test system: LXFL 529
RXF 393 = test system: RXF 393
TK-10 = test system: TK-10
SF-268 = test system: SF-268
KM12 = test system: KM12
SNB-19 = test system: SNB-19
SK-MEL-28 = test system: SK-MEL-28
KM-20L2 = test system: KM-20L2
SK-OV-3 = test system: SK-OV-3
SF-295 = test system: SF-295
M14 = test system: M14
OVCAR-4 = test system: OVCAR-4
DLD-1 = test system: DLD-1
A549 = test system: A549
U-251 = test system: U-251
HOP-62 = test system: HOP-62
IGROV-1 = test system: IGROV-1
NCI-H522 = test system: NCI-H522
OVCAR-3 = test system: OVCAR-3
SN12C = test system: SN12C
RPMI-8226 = test system: RPMI-8226
M19-MEL = test system: M19-MEL
MOLT-4 = test system: MOLT-4
SF-539 = test system: SF-539
DMS-114 = test system: DMS-114
LOX IMVI = test system: LOX IMVI
CCRF-CEM = test system: CCRF-CEM
786-0 = test system: 786-0
HCT-15 = test system: HCT-15
CAKI-1 = test system: CAKI-1
UO-31 = test system: UO-31
Malme-3M = test system: Malme-3M
OVCAR-5 = test system: OVCAR-5
EKVX = test system: EKVX
SK-MEL-2 = test system: SK-MEL-2
HOP-92 = test system: HOP-92
ACHN = test system: ACHN
A498 = test system: A498
UACC-257 = test system: UACC-257
NCI/ADR-RES = test system: NCI/ADR-RES
MCF7 = test system: MCF7

Structure (SMILES): CC1=CP(=O)(c2ccccc2)C=C(C)C1=C(Cl)Cl (stereo unspecified)
- GI50 (HCT-116): 3.2 µM (inactive)
- GI50 (NCI-H226): 3.19 µM (inactive)
- GI50 (SNB-75): 4.83 µM (inactive)
- GI50 (XF498): 17.4 µM (inactive)
- GI50 (HCC 2998): 15 µM (inactive)
- GI50 (NCI-H23): 17.4 µM (inactive)
- GI50 (HT-29): 3.55 µM (inactive)
- GI50 (K562): 3.21 µM (inactive)
- GI50 (SW-620): 3.82 µM (inactive)
- GI50 (DMS-273): 3.3 µM (inactive)
- GI50 (OVCAR-8): 10.9 µM (inactive)
- GI50 (NCI-H460): 3.35 µM (inactive)
- GI50 (UACC-62): 6.43 µM (inactive)
- GI50 (COLO 205): 4.45 µM (inactive)
- GI50 (SK-MEL-5): 4.67 µM (inactive)
- GI50 (HOP-18): 18.7 µM (inactive)
- GI50 (HL-60): 2.12 µM (inactive)
- GI50 (SNB-78): 2.98 µM (inactive)
- GI50 (LXFL 529): 3.27 µM (inactive)
- GI50 (RXF 393): 16.9 µM (inactive)
- GI50 (TK-10): 4.68 µM (inactive)
- GI50 (SF-268): 3.98 µM (inactive)
- GI50 (KM12): 3.37 µM (inactive)
- GI50 (SNB-19): 17.7 µM (inactive)
- GI50 (SK-MEL-28): 11.2 µM (inactive)
- GI50 (KM-20L2): 2.48 µM (inactive)
- GI50 (SK-OV-3): 29.4 µM (inactive)
- GI50 (SF-295): 5.38 µM (inactive)
- GI50 (M14): 4.99 µM (inactive)
- GI50 (OVCAR-4): 12.9 µM (inactive)
- GI50 (DLD-1): 8.17 µM (inactive)
- GI50 (A549): 6.24 µM (inactive)
- GI50 (U-251): 6.71 µM (inactive)
- GI50 (HOP-62): 3.26 µM (inactive)
- GI50 (IGROV-1): 17.3 µM (inactive)
- GI50 (NCI-H522): 2.6 µM (inactive)
- GI50 (OVCAR-3): 16 µM (inactive)
- GI50 (SN12C): 15.6 µM (inactive)
- GI50 (RPMI-8226): 2.5 µM (inactive)
- GI50 (M19-MEL): 12.2 µM (inactive)
- GI50 (MOLT-4): 3.91 µM (inactive)
- GI50 (SF-539): 5.24 µM (inactive)
- GI50 (DMS-114): 10.8 µM (inactive)
- GI50 (LOX IMVI): 4.05 µM (inactive)
- GI50 (CCRF-CEM): 3.93 µM (inactive)
- GI50 (786-0): 4.1 µM (inactive)

Structure (SMILES): Clc1ccc(/C=C/c2csnn2)cc1
- GI50 (HCT-15): > 100 µM
- GI50 (HCT-116): > 100 µM (inactive)
- GI50 (NCI-H226): > 100 µM (inactive)
- GI50 (CAKI-1): > 100 µM (inactive)
- GI50 (UO-31): > 100 µM (inactive)
- GI50 (SNB-75): > 100 µM (inactive)
- GI50 (XF498): > 100 µM (inactive)
- GI50 (HCC 2998): > 100 µM (inactive)
- GI50 (NCI-H23): > 100 µM (inactive)
- GI50 (HT-29): > 100 µM (inactive)
- GI50 (K562): > 100 µM (inactive)
- GI50 (SW-620): > 100 µM (inactive)
- GI50 (DMS-273): > 100 µM (inactive)
- GI50 (OVCAR-8): > 100 µM (inactive)
- GI50 (NCI-H460): > 100 µM (inactive)
- GI50 (UACC-62): > 100 µM (inactive)
- GI50 (Malme-3M): > 100 µM (inactive)
- GI50 (COLO 205): > 100 µM (inactive)
- GI50 (SK-MEL-5): > 100 µM (inactive)
- GI50 (HOP-18): > 100 µM (inactive)
- GI50 (HL-60): > 100 µM (inactive)
- GI50 (SNB-78): > 100 µM (inactive)
- GI50 (OVCAR-5): > 100 µM (inactive)
- GI50 (LXFL 529): > 100 µM (inactive)
- GI50 (RXF 393): > 100 µM (inactive)
- GI50 (TK-10): > 100 µM (inactive)
- GI50 (SF-268): > 100 µM (inactive)
- GI50 (EKVX): > 100 µM (inactive)
- GI50 (SK-MEL-2): > 100 µM (inactive)
- GI50 (KM12): > 100 µM (inactive)
- GI50 (HOP-92): 27.1 µM (inactive)
- GI50 (SNB-19): > 100 µM (inactive)
- GI50 (SK-MEL-28): > 100 µM (inactive)
- GI50 (KM-20L2): > 100 µM (inactive)
- GI50 (SK-OV-3): > 100 µM (inactive)
- GI50 (SF-295): > 100 µM (inactive)
- GI50 (M14): > 100 µM (inactive)
- GI50 (OVCAR-4): > 100 µM (inactive)
- GI50 (ACHN): > 100 µM (inactive)
- GI50 (DLD-1): > 100 µM (inactive)
- GI50 (A549): > 100 µM (inactive)
- GI50 (U-251): > 100 µM (inactive)
- GI50 (HOP-62): > 100 µM (inactive)
- GI50 (IGROV-1): > 100 µM (inactive)
- GI50 (NCI-H522): > 100 µM (inactive)
- GI50 (OVCAR-3): > 100 µM (inactive)
- GI50 (SN12C): > 100 µM (inactive)
- GI50 (A498): > 100 µM (inactive)
- GI50 (M19-MEL): > 100 µM (inactive)
- GI50 (UACC-257): > 100 µM (inactive)
- GI50 (MOLT-4): > 100 µM (inactive)
- GI50 (SF-539): > 100 µM (inactive)
- GI50 (DMS-114): > 100 µM (inactive)
- GI50 (LOX IMVI): > 100 µM (inactive)
- GI50 (CCRF-CEM): > 100 µM (inactive)
- GI50 (786-0): > 100 µM (inactive)

Structure (SMILES): O=C(Nc1ccc(C2=NCCN2)cc1)c1cncc(C(=O)Nc2ccc(C3=NCCN3)cc2)c1
- GI50 (HCT-15): > 100 µM
- GI50 (HCT-116): > 100 µM (inactive)
- GI50 (NCI-H226): > 94.6 µM (inactive)
- GI50 (CAKI-1): > 100 µM (inactive)
- GI50 (UO-31): > 100 µM (inactive)
- GI50 (SNB-75): > 31.6 µM (inactive)
- GI50 (XF498): > 100 µM (inactive)
- GI50 (HCC 2998): > 100 µM (inactive)
- GI50 (NCI-H23): > 100 µM (inactive)
- GI50 (HT-29): > 100 µM (inactive)
- GI50 (K562): > 100 µM (inactive)
- GI50 (SW-620): > 100 µM (inactive)
- GI50 (DMS-273): > 100 µM (inactive)
- GI50 (OVCAR-8): > 100 µM (inactive)
- GI50 (NCI-H460): > 100 µM (inactive)
- GI50 (UACC-62): > 100 µM (inactive)
- GI50 (Malme-3M): > 100 µM (inactive)
- GI50 (COLO 205): > 100 µM (inactive)
- GI50 (SK-MEL-5): > 100 µM (inactive)
- GI50 (HOP-18): > 100 µM (inactive)
- GI50 (HL-60): > 100 µM (inactive)
- GI50 (SNB-78): > 100 µM (inactive)
- GI50 (OVCAR-5): > 100 µM (inactive)
- GI50 (RXF 393): > 100 µM (inactive)
- GI50 (SF-268): > 31.6 µM (inactive)
- GI50 (EKVX): > 100 µM (inactive)
- GI50 (SK-MEL-2): > 100 µM (inactive)
- GI50 (KM12): > 100 µM (inactive)
- GI50 (HOP-92): > 100 µM (inactive)
- GI50 (SNB-19): > 100 µM (inactive)
- GI50 (SK-MEL-28): > 31.6 µM (inactive)
- GI50 (KM-20L2): > 100 µM (inactive)
- GI50 (NCI/ADR-RES): > 100 µM (inactive)
- GI50 (SK-OV-3): > 100 µM (inactive)
- GI50 (SF-295): > 100 µM (inactive)
- GI50 (OVCAR-4): > 100 µM (inactive)
- GI50 (DLD-1): > 100 µM (inactive)
- GI50 (A549): > 100 µM (inactive)
- GI50 (U-251): > 100 µM (inactive)
- GI50 (HOP-62): > 100 µM (inactive)
- GI50 (IGROV-1): > 100 µM (inactive)
- GI50 (NCI-H522): > 100 µM (inactive)
- GI50 (OVCAR-3): > 100 µM (inactive)
- GI50 (SN12C): > 100 µM (inactive)
- GI50 (A498): > 100 µM (inactive)
- GI50 (RPMI-8226): > 100 µM (inactive)
- GI50 (M19-MEL): > 100 µM (inactive)
- GI50 (UACC-257): > 100 µM (inactive)
- GI50 (MOLT-4): > 100 µM (inactive)
- GI50 (SF-539): > 100 µM (inactive)
- GI50 (DMS-114): > 100 µM (inactive)
- GI50 (LOX IMVI): > 100 µM (inactive)
- GI50 (MCF7): > 100 µM (inactive)
- GI50 (CCRF-CEM): > 100 µM (inactive)
